From patent publication US20040121474A1, “Detection and evaluation of chemically-mediated and ligand-mediated t-cell activation using optophoretic analysis” (Genoptix, Inc, priority 2002, published 2004)
Values after ≈ are worked out from the molar mass of the structure shown.

Key:
Assay type in all cases: cell-based
[1] = test system: U937 cells; assay: Quantitative determination of PKC activation, escape velocity dose response; conditions: five hours
Method: Optophoretic analysis was used to develop a full dose response curve for U937 cells treated with PMA. U937 cells were incubated with varying amounts of PMA dissolved in DMSO. The following concentrations of PMA were tested: 0.156 ng/ml, 0.312 ng/ml, 0.625 ng/ml, 1.25 ng/ml, 2.5 ng/ml, 5 ng/ml, and no PMA (control). […] Escape velocity measurements were then taken using a 100 mW laser having a beam diameter of 28 pixels. Table 9 reproduced below sets forth the measured escape velocities (μm/sec) for each of the various PMA concentrations.
The method described above may be used to quantitatively determine the level of PKC activation in cells in response to exposure to PKC activating compound using a moving optical gradient. The method includes the steps of first providing a series of cell samples and exposing the series of cell samples to different concentrations of the PKC activating compound. After a period of incubation from about one to several hours, the cells and the optical gradient are moved relative to each other so as to cause displacement of at least some of the cells. Next, the displacement of at least a portion of the displaced cells is measured for each of the different concentrations. […] From the dose response curve, one is able to calculate one or more numerical values that correlate to PKC potency and/or efficacy. For example, the dose response curve can be used to calculate the EC50, Hill slope, or plateau value relative to a standard compound.

[2] = test system: HL-60 cells; assay: Escape velocity, differentiation of HL-60 cells; conditions: 200 ng/ml PMA
Method: Initial tests were performed using HL-60 cells treated with PMA. HL-60 cells were seeded at about 1-3×10^6 cells per well in six well plates. The cells were treated with 200 ng/ml PMA while the control cells were treated with ethanol (EtOH) vehicle for four hours at 37° C. After incubation for four hours the treated cells were washed with PBS and re-fed with growth media. The treated HL-60 cells were then allowed to differentiate for 72 hours in normal growth media. After the 72 hour period, the untreated control cells were collected by centrifugation, washed with PBS and pelleted for resuspension at 1.5×10^6 cells/ml in PBS/1% BSA. Treated cells were trypsinized and collected by centrifugation then washed in PBS and pelleted for resuspension at 1×10^6 cells/ml in PBS/1% BSA. The cells were then subjected to Optophoretic analysis by measuring the escape velocities of the treated and control cells. Table 23 shown below illustrates the measured escape velocities of the undifferentiated and differentiated cells at 72 hours post treatment.

[3] = test system: U937 cells; assay: Escape velocity, time and concentration dependence of PMA; parameters: Escape velocity Ave.: unit not given here
Method: This experiment was conducted to test the effect of PMA concentration on the escape velocity of U937 cells. PMA concentrations of 10 ng/ml, 1 ng/ml, 100 pg/ml, 10 pg/ml and 1 pg/ml were tested. The control sample received EtOH and not PMA.
The PMA concentration was tested at three timepoints: 1 hour, 3 hours and 5 hours. At each timepoint, 300 μl of cells were removed from each flask. The cells were then spun for 5 minutes at 5000 rpm. The cells were then resuspended in […] PBS/1% BSA and […] of trypan blue.

[4] = test system: HL-60 cells; assay: Fast scan analysis, differentiation of HL-60 cells; conditions: 400 ng/ml PMA, differentiation into monocytes/macrophages
Method: Fast scan analysis was also performed on HL-60 cells that were treated with PMA and DMSO. A time course evaluation of PMA treated HL-60 cells was performed with fast scan data taken at 16 hours, 24 hours, 40 hours, and 72 hours post-treatment with 400 ng/ml PMA. A control sample of HL-60 cells was also tested using EtOH as the vehicle for purposes of comparing the differentiated cells with the undifferentiated HL-60 cells. The PMA-treated and control cells were harvested and trypsinized. The samples were then resuspended in PBS/1% BSA. A set of samples was also obtained and left as pellets at 4° C. for subsequent FACS analysis.
A time course evaluation of DMSO treated HL-60 cells was performed with fast scan data taken at 16 hours, 24 hours, 40 hours, and 70 hours post-treatment with 1% DMSO. A control sample of HL-60 cells was also tested for purposes of comparing the differentiated cells with the undifferentiated HL-60 cells. The DMSO-treated and control cells were then harvested and resuspended in PBS/1% BSA. A set of samples was also obtained and left as pellets at 4° C. for subsequent FACS analysis.

[5] = test system: U937 cells; assay: Escape velocity, PMA inhibition by bisindolymaleimide; conditions: 10 ng/ml PMA only, four hours
Excerpt: The objective of this experiment was to test the effect of bisindolymaleimide on cells exposed to PMA. Bisindolymaleimide is a Protein Kinase C inhibitor and should block the effect of PMA on U937 cells and their escape velocities. As shown in this and prior experiments, exposure of U937 cells to PMA results in an increase in the escape velocity of the cells. Therefore, it is anticipated that addition of bisindolymaleimide will reduce or eliminate the increase in escape velocity caused by PMA. This has in fact been observed in the data shown below.
Bisindolymaleimide was tested at two concentrations: 200 ng/ml and 50 ng/ml. Samples not treated with bisindolymaleimide received an equivalent amount of the carrier, MeOH, as a control. […] The concentration of PMA tested was 10 ng/ml. Samples not receiving PMA received DMSO.
Once the flasks were prepared, they were incubated at 37° C. 5% CO2 for four hours. At the four hour timepoint, 300 μl of cells were removed from each flask and pelleted at 5000 rpm for 5 minutes. The cells were then resuspended in 6 ml PBS/1% BSA and 60 μl trypan blue.

## CCCCCCCCCCCCCC(=O)O[C@@H]1[C@@H](C)[C@@]2(O)[C@@H](C=C(CO)C[C@]3(O)C(=O)C(C)=C[C@@H]23)[C@@H]2C(C)(C)[C@]12OC(C)=O [PMA, phorbol 12 myristate 13-acetate]
[1]; 1.25 ng/ml PMA
  Escape velocity Average: 17.0 μm/sec
[1]; 2.5 ng/ml PMA
  Escape velocity Average: 17.0 μm/sec
[1]; 5 ng/ml PMA
  Escape velocity Average: 17.3 μm/sec
[1]; .156 ng/ml PMA
  Escape velocity Average: 15.8 μm/sec
[1]; .312 ng/ml PMA
  Escape velocity Average: 16.0 μm/sec
[1]; .625 ng/ml PMA
  Escape velocity Average: 16.6 μm/sec
[1]; Homo sapiens, U-937, 5 h, escape velocity, U937 cells, read-out: EC50 value of the PMA dose response curve (FIG. 53)
  EC50: ~0.625 ng/mL (≈ 1.01 nM)
[1]; U937 cells
  PMA concentrations at which a significant shift in escape velocity is seen: exceeding 0.625 ng/ml
[2]; HL-60 + PMA at 72 hours (differentiated), control 11.9
  Escape velocity Average: 14.0 μm/sec
[2]; HL-60 cells, 72 hours
  increase in measured escape velocity as compared to the control cells: about 2 μm/se c
[3]; 10 pg/ml PMA, 1 Hour Activation
  Escape velocity Ave.: 14.4
[3]; 10 pg/ml PMA, 3 Hour Activation
  Escape velocity Ave.: 14.5
[3]; 10 pg/ml PMA, 5 Hour Activation
  Escape velocity Ave.: 14.1
[3]; 100 pg/ml PMA, 1 Hour Activation
  Escape velocity Ave.: 14.4
[3]; 100 pg/ml PMA, 3 Hour Activation
  Escape velocity Ave.: 15.5
[3]; 100 pg/ml PMA, 5 Hour Activation
  Escape velocity Ave.: 16.1
[3]; 1 ng/ml PMA, 1 Hour Activation
  Escape velocity Ave.: 14.3
[3]; 1 ng/ml PMA, 3 Hour Activation
  Escape velocity Ave.: 15.1
[3]; 1 ng/ml PMA, 5 Hour Activation
  Escape velocity Ave.: 16.5
[3]; 10 ng/ml PMA, 1 Hour Activation
  Escape velocity Ave.: 14.8
[3]; 10 ng/ml PMA, 3 Hour Activation
  Escape velocity Ave.: 15.2
[3]; 10 ng/ml PMA, 5 Hour Activation
  Escape velocity Ave.: 16.2
[3]; two lowest concentrations, 10 pg/ml and 1 pg/ml
  Optophoretic difference (escape velocity): no Optophoretic difference
[4]
  time after treatment at which Optophoretic analysis detected cellular differentiation: ≤ 16 h
[5]
  Escape velocity Ave.: 15.4 μm/sec
